In patent US6124342A, “Pharmaceutical compositions containing pyrylium compounds, pyrylium salts and process for manufacturing a medicament containing the aforesaid compounds” (priority 1993, dated 2000):
Values joined by “and” are separate entries in the source; they are usually repeats but may differ in a detail not shown here. Equal entries are not always repeated. Where two headings read alike, the source gives them in different places.

Assays:
[1] = Light absorption characteristics without DNA (Table 2); assay type: physicochemical
From the text: (§1) Typical examples of compounds represented by the formula [I] which can be used as the active ingredient in a medicament for the photochemical treatment of cancer according to the present invention are shown in Table 1 below. Almost all the compound shown in Table 2 have their own absorption peaks in the region 600 nm or above, and have molar absorption coefficients as large as 5-8.5×10^4 l/mol.cm which enables more efficient use to be made of the light in photochemical treatment. Furthermore, compound 1 in Table 2 has an absorption peak in the region below 600 nm, but it has sufficiently strong absorption that it still provides better treatment efficiency at wavelength greater than 600 nm.

DNA = assay: Light absorption characteristics under existence of DNA (Table 2); assay type: physicochemical; conditions: with DNA
From the text: as §1

skin of each mouse = assay: Irradiation of the back skin of medicated mice without tumour; assay type: in vivo, nude mice; conditions: for change on irradiation of mice without tumour: group E or E'; for affinity for cancer cells versus normal cells: inferred from group E or E'
Method: Ten nude mice having weight 200-400 g were selected, and they were separated into five groups referred to as A, B, C, D and E, each containing two nude mice. Each of the mice was inocculated on its back with KATO III, which is a culture of stomach cancer cells from a human patient. The cancer cells were inocculated into the central part of the back of each mouse, after which the mice were kept for ten days. […] The mice in groups A, B and E were injected with the compound 1 (Y=I) in balanced saline solution through a vein in the leg. […] In group E, a part of every mouse's back was irradiated with the white light. In each case the amount of irradiation was 50J. Thereafter, the cancerous region of each mouse in the group a to D was observed and the skin of each mouse in the group E was observed.

L-929 cells = assay: Photochemical killing of cultured cancer cells (fluorescence microscope irradiation); conditions: for cytotoxicity at 0.05 µg/mL: read-out: percentage of cells which died, 0.05 μg/ml; for cytotoxicity at 0.075 µg/mL: read-out: percentage of cells which died, 0.075 μg/ml; for cell killing without irradiation: compound added, not irradiated; for cytotoxicity at 0.25 µg/mL: read-out: percentage of cells which had died, 0.25 μg/ml; for cytotoxicity at 0.5 µg/mL: read-out: percentage of cells which had died, 0.5 μg/ml
KATO III [2] = assay: Photochemical treatment of KATO III tumours in nude mice; assay type: in vivo, human; conditions: Tables 6 and 7
Method: Ten nude mice having weight 200-400 g were selected, and they were separated into five groups referred to as A, B, C, D and E, each containing two nude mice. Each of the mice was inocculated on its back with KATO III, which is a culture of stomach cancer cells from a human patient. The cancer cells were inocculated into the central part of the back of each mouse, after which the mice were kept for ten days. […] The mice in groups A, B and E were injected with the compound 1 (Y=I) in balanced saline solution through a vein in the leg. The amount of compound 1 which was administered to each mouse was 1 mg per 1 kg of the mouse's weight. Thereafter, the cancerous growth in each mouse in the group A and C was irradiated with white light in which the radiation of wavelength 400 nm or less and radiation of wavelength 1000 nm or above was filtered out. In group E, a part of every mouse's back was irradiated with the white light. In each case the amount of irradiation was 50J. Thereafter, the cancerous region of each mouse in the group a to D was observed and the skin of each mouse in the group E was observed.
The same test as in Example 10 was carried out except that the compound 2 was used in place of the compound 1. the results are shown in Table 7.

nude mice = assay: Acute toxicity test, intravenous injection; assay type: in vivo; conditions: balanced saline solution; i.v. leg vein; 1 mg/kg; 2 nude mice
Method: The compound 1 (Y=I) was dissolved into a balanced saline solution and was injected into each of 2 nude mice of weight 200-400 g through a vein in the leg of the mouse. The amount of solution injected was 1 mg to 1 kg of the weight of each mouse.
The toxicity test of Example 6 was repeated except that the compound 2 was used in place of the compound 1.
The test of Example 6 was repeated except that the compound 1 (Y=I) was dissolved in dimethyl sulfoxide. The amount of solution injected was 1 mg per 1 kg of the mouse's weight. Subsequent injections on further groups of mice were carried out at 5 mg per 1 kg of the mouse's weight and 25 mg per 1 kg of the mouse's weight.
The same test as in Example 8 was carried out except that the active ingredient was compound 2 (Y=I) instead of compound 1.

cancer cells = assay: Uptake by cancer cells; assay type: cell-based, mice
Method: Four such cultures using the same medium were prepared.

KATO III [3] = assay: Deepness of necrotic tumour after irradiation; assay type: in vivo, human; conditions: 1 mg/kg; 580 nm (half-width=20 nm); 10J; one day after irradiation
Method: Four nude mice of weight 200-400 g were selected and were separated into groups X and Y, each containing two mice. Next, KATO III was inocculated into every mouse in the same way as in Example 10, after which the mice were kept for three weeks to fix the cancer cells. After three weeks the cancer in each mouse had grown and the size of the cancer was about 13 mm wide, 13 mm long and about 8 mm high. Next the mice in group X were injected via the leg with a balanced saline solution of the compound 1, and the mice of Group Y were injected with a balanced saline solution of the compound 16 via the leg. The dose of the compound 1 or 16 was adjusted to be 1 mg of the compound 1 or the compound 16 per 1 kg of the mouse's weight. Subsequently, the mice in group X were irradiated with radiation of wavelength 580 nm (half-width=20 nm) which was separated by means of a filter, and the mice in group Y were irradiated with radiation having a wavelength 720 nm (half-width=20 nm) which was separated with a filter. The amount of energy irradiated was 10J. One day after the irradiation the depth of the tumour which had become necrotic was measured.

[4] = Mus musculus, L929, 1 min, 1 min, 600-650 nm, Y=I
[5] = Mus musculus, L929, 0.05 h, 3 min, 600-650 nm, Y=I
[6] = Mus musculus, L929, 5 min, 5 min, 600-650 nm, Y=I
[7] = Mus musculus, L929, 12 h, 3 min, 560-610 nm, Y=I
[8] = Mus musculus, L929, 12 h, 5 min, 560-610 nm, Y=I

Which “Absorption (max) Peak Under no existence of DNA” value [1] does the source give for `CN(C)c1ccc(C=Cc2cc(-c3ccccc3)cc(-c3ccccc3)[s+]2)cc1` [Compound 8] here?
Its value is 650 nm.

What about the “Absorption (max) Peak Under existence of DNA” value (DNA) of the same compound?
Its value is 610 nm.

With `CN(C)c1ccc(C=CC(C=Cc2ccc(N(C)C)cc2)=Cc2cc(-c3ccccc3)[o+]c(-c3ccccc3)c2)cc1` [Compound 11] as the compound, how does the “Absorption (max) Peak Under no existence of DNA” value [1] read?
The value was 625 nm.

What about the “Absorption (max) Peak Under existence of DNA” value (DNA) of the same compound?
The value was 660 nm.

Which “Absorption (max) Peak Under no existence of DNA” value [1] does the source give for `CN(C)c1ccc(C=CC=Cc2cc(-c3ccccc3)[o+]c(-c3ccccc3)c2)cc1` [Compound 9] here?
Its value is 660 nm.

What about the “Absorption (max) Peak Under existence of DNA” value (DNA) of the same compound?
Its value is 720 nm.

With `Cc1cc(-c2ccc(N(C)C)cc2)cc(-c2ccc(N(C)C)cc2)[s+]1` [Compound 2, 2-methyl-4,6-bis-(4-N,N-dimethylaminophenyl)thiopyrylium iodide] as the compound, how does the “Molar absorption coefficient ε” value [1] read?
The value was 49500 L/mol/cm.

What about the “Absorption (max) Peak Under no existence of DNA” value [1] of the same compound?
Its value is 580 nm.

And the “Absorption (max) Peak Under existence of DNA” value (DNA)?
The value was 620 nm.

What about the Change of skin (skin of each mouse; Table 7, group E': medicated, irradiated) of the same compound?
Its Change of skin is “No Change”.

What about the “change on irradiation of mice without tumour” value (skin of each mouse) of the same compound?
Its value is “no change was observed”.

And the “affinity for cancer cells versus normal cells” value (skin of each mouse)?
The value was “different from the affinity”.

And the cytotoxicity at 0.05 µg/mL (L-929 cells; [4])?
Its cytotoxicity at 0.05 µg/mL is about 10%.

What about the cytotoxicity at 0.075 µg/mL (L-929 cells; [4]) of the same compound?
The cytotoxicity at 0.075 µg/mL was 80%.

And the cytotoxicity at 0.1 µg/mL (L-929 cells; Mus musculus, L929, 1 min, read-out: percentage of cells which died, 0.1 μg/ml, 1 min, 600-650 nm, Y=I)?
Its cytotoxicity at 0.1 µg/mL is 100%.

What about the cytotoxicity at 0.05 µg/mL (L-929 cells; [5]) of the same compound?
The cytotoxicity at 0.05 µg/mL was 80%.

What about the cytotoxicity at 0.075 µg/mL (L-929 cells; [5]) of the same compound?
Its cytotoxicity at 0.075 µg/mL is 100%.

What about the cytotoxicity at 0.1 µg/mL (L-929 cells; Mus musculus, L929, 0.05 h, read-out: percentage of cells which died, 0.1 μg/ml, 3 min, 600-650 nm, Y=I) of the same compound?
The cytotoxicity at 0.1 µg/mL was 100%.

What about the cytotoxicity at 0.025 µg/mL (L-929 cells; Mus musculus, L929, 5 min, read-out: percentage of cells which died, 0.025 μg/ml, 5 min, 600-650 nm, Y=I) of the same compound?
The cytotoxicity at 0.025 µg/mL was about 50%.

And the cytotoxicity at 0.05 µg/mL (L-929 cells; [6])?
Its cytotoxicity at 0.05 µg/mL is 100%.

What about the cytotoxicity at 0.075 µg/mL (L-929 cells; [6]) of the same compound?
The cytotoxicity at 0.075 µg/mL was 100%.

What about the cytotoxicity at 0.1 µg/mL (L-929 cells; Mus musculus, L929, 5 min, read-out: percentage of cells which died, 0.1 μg/ml, 5 min, 600-650 nm, Y=I) of the same compound?
Its cytotoxicity at 0.1 µg/mL is 100%.

And the “cell killing without irradiation” value (L-929 cells)?
The value was “not killed and continued to grow in culture”.

What about the “killing effect compared with another compound” value (L-929 cells; with irradiation) of the same compound?
Its value is “greater killing effect than compound 1”.

And the “effectiveness in photochemical treatment of human cancer cells growing in live mice” value (KATO III [2])?
The value was “effective in the photochemical treatment of human cancer cells growing in live mice”.

What about the “adverse effects (acute toxicity)” value (nude mice) of the same compound?
Its value is “no ill effects”.

Which “Molar absorption coefficient ε” value [1] does the source give for `Cc1cc(-c2ccc(N(C)C)cc2)cc(-c2ccc(N(C)C)cc2)[o+]1` [Compound 1, 2-methyl-4,6-bis-(4-N,N-dimethylaminophenyl) pyrylium iodide] here?
Its value is 84600 L/mol/cm.

What about the absorption peak region ([1]; Table 2) of the same compound?
Its absorption peak region is “below 600 nm”.

And the “Absorption (max) Peak Under no existence of DNA” value [1]?
The value was 540 nm.

What about the “Absorption (max) Peak Under existence of DNA” value (DNA) of the same compound?
The value was 580 nm.

And the “uptake by the cancer cells” value (cancer cells)?
The value was “rapid”.

What about the Change of skin (skin of each mouse; Table 6, group E: 1 mg/kg i.v., irradiated 50J) of the same compound?
Its Change of skin is “No Change”.

What about the “change on irradiation of mice without tumour” value (skin of each mouse) of the same compound?
Its value is “no change was observed”.

And the “affinity for cancer cells versus normal cells” value (skin of each mouse)?
The value was “different from the affinity”.

What about the “Deepness of died tumour” value (KATO III [3]) of the same compound?
Its value is 4.5 mm and 4.8 mm.

And the “effectiveness to kill cancer cells” value (L-929 cells; 0.1-0.5 μg/ml, irradiation 1-5 minutes)?
Its value is “effective to kill cancer cells”.

What about the cytotoxicity at 0.1 µg/mL (L-929 cells; Mus musculus, L929, 12 h, read-out: percentage of cells which had died, 0.1 μg/ml, 5 min, 560-610 nm, Y=I) of the same compound?
The cytotoxicity at 0.1 µg/mL was 100%.

And the cytotoxicity at 0.25 µg/mL (L-929 cells; [7])?
Its cytotoxicity at 0.25 µg/mL is about 100%.

What about the cytotoxicity at 0.25 µg/mL (L-929 cells; [8]) of the same compound?
Its cytotoxicity at 0.25 µg/mL is 100%.

And the cytotoxicity at 0.5 µg/mL (L-929 cells; Mus musculus, L929, 12 h, 1 min, 560-610 nm, Y=I)?
The cytotoxicity at 0.5 µg/mL was about 90%.

What about the cytotoxicity at 0.5 µg/mL (L-929 cells; [7]) of the same compound?
Its cytotoxicity at 0.5 µg/mL is about 100%.

And the cytotoxicity at 0.5 µg/mL (L-929 cells; [8])?
The cytotoxicity at 0.5 µg/mL was 100%.

And the “cell killing without irradiation” value (L-929 cells)?
Its value is “not killed and continued to grow in culture”.

And the “effectiveness in photochemical treatment of human cancer cells growing in live mice” value (KATO III [2])?
The value was “effective in the photochemical treatment of human cancer cells growing in live mice”.

And the “adverse effects (acute toxicity)” value (nude mice)?
The value was “no adverse effects”.

For `CCN(CC)c1ccc(C=Cc2ccc(C=Cc3cc(-c4ccccc4)cc(-c4ccccc4)[o+]3)cc2)cc1` [Compound 17], which “Absorption (max) Peak Under no existence of DNA” value [1] is on record?
The value was 690 nm.

What about the “Absorption (max) Peak Under existence of DNA” value (DNA) of the same compound?
The value was 720 nm.
